{"source": "patent US20070004767A1", "about": "“Methods for treating neurofibromatosis 1” (priority 2005, published 2007)", "key": {"[1]": {"test_system": "ribosomal S6 protein phosphorylation in Nf1−/− astrocytes", "experiment": "S6 phosphorylation (phospho-S6 Ser240/244 Western blot) in Nf1−/− astrocytes", "assay_type": "cell-based, mouse", "method": "(§1) Western blot analysis was performed as described previously in, for example, Dasgupta B et al., The Neurofibromatosis 1 Gene Product Neurofibromin Regulates Pituitary Adenylate Cyclase-Activating Polypeptide-Mediated Signaling in Astrocytes, J. NEUROSCI. 23:8949-8954 (2003). The following antibodies were used: anti-NF1GRP, nucleolin, and cyclin D1 (Santa Cruz Biotechnology, Santa Cruz, Calif.), phospho-S6 (Serine-240/244; Cell Signaling Technology, Beverley, Mass.), α-tubulin and fibrillarin (Sigma, St. Louis, Mo.), anti-T7 (Novagen, Madison, Wis.), anti-KT3 (Babco, Richmond, Calif.), NPM (Zymed, San Francisco, Calif.), and L7 (Novus Biologicals, Littleton, Colo.).\n(§2) One of the downstream targets of activated RAS is P13-Kinase. See Rodriguez-Viciana P, et al., Phosphatidylinositol-3-OH Kinase as a Direct Target of Ras, NATURE 370:527-532 (1994). In this regard, loss of neurofibromin expression is associated with activation of the PI3K-AKT signaling pathway in human NF1-associated pilocytic astrocytoma and in Nf1−/− mouse myeloid cells. See Lau N, et al., Loss of Neurofibromin is Associated with Activation of Ras/MAPK and PI3K/AKT Signalling in a Neurofibromatosis 1 Astrocytoma, J NEUROPATHOL. EXP. NEUROL. 59:759-767 (2000); and Donovan S, et al., Hyperactivation of Protein Kinase B and Erk Have Discrete Effects on Survival, Proliferation, and Cytokine Expression in Nf1-Deficient Myeloid Cells, CANCER CELL 2:507-514 (2002). Several studies have shown that activation of the PI3K-AKT leads to activation of the mammalian target of rapamycin (mTOR), which leads to phosphorylation of S6 kinase and activation of ribosomal S6. See Chung J, et al., PDGF- and Insulin-Dependent pp70S6k Activation Mediated by Phosphatidylinositol-3-OH Kinase, NATURE 370:71-75 (1994); and Gingras A C, et al., Regulation of Translation Initiation by FRAP/mTOR, GENES DEV. […] To determine whether S6 hyperactivation in Nf1−/− astrocytes is downstream of PI3K and mTOR, S6 phosphorylation in both Nf1+/+ and Nf1−/− astrocytes in presence of a PI3K inhibitor (LY294002) and an mTOR inhibitor (rapamycin) was measured. […]"}, "[2]": {"test_system": "ribosomal S6 protein phosphorylation in wild-type (Nf1+/+) astrocytes", "experiment": "S6 phosphorylation (phospho-S6 Ser240/244 Western blot) in wild-type astrocytes", "assay_type": "cell-based, mouse", "details": "for S6 phosphorylation: wild-type astrocytes", "method": "as §1, §2"}, "astrocytes": {"test_system": "astrocytes", "details": "mouse, 1 μM", "quoted_text": "(§3) To determine whether the growth advantage of Nf1-deficient astrocytes reflected increased mTOR signaling, Nf1−/− astrocyte proliferation after rapamycin treatment was measured."}, "[3]": {"biological_target": "12 kDa FK506 binding protein (FKBP12) (Homo sapiens, UniProt P62942)", "sequence (P62942 whole entry, species assumed)": "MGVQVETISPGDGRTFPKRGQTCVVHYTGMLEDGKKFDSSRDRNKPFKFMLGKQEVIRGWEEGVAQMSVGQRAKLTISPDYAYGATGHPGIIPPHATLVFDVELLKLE", "details": "cited from earlier work"}, "[4]": {"biological_target": "FKBP-rapamycin binding domain (FRB) of mammalian target of rapamycin (mTOR) (Homo sapiens, UniProt P42345+P62942)", "sequence (P42345 2015-2114, species assumed)": "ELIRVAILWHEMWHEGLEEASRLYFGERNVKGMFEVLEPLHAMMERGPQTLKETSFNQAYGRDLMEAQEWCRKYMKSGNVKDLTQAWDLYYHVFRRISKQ", "sequence (P62942 2-108, species assumed)": "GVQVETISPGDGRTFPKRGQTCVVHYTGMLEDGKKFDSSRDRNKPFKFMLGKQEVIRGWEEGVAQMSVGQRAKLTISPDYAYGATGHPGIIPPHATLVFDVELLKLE", "details": "cited from earlier work"}, "Nf1−/− astrocytes": {"test_system": "Nf1−/− astrocytes", "experiment": "Astrocyte proliferation by 3[H]-thymidine incorporation, Nf1−/− astrocytes", "quoted_text": "(§4) Murine neocortical astroglial cultures, containing >95% GFAP positive cells (astrocytes), were generated from postnatal day 2 Nf1^flox/flox and (LSL)-K-RAS^G12D; GFAPCre transgenic pups as previously described. […] Astrocyte proliferation assays were performed by ^3[H]-thymidine incorporation.\nas §3"}, "wild-type astrocytes": {"test_system": "wild-type astrocytes", "experiment": "Astrocyte proliferation by 3[H]-thymidine incorporation, wild-type astrocytes", "quoted_text": "as §4, §3"}, "[5]": {"details": "control astrocytes, FIG. 6 legend"}}}
{"smiles": "CO[C@H]1C[C@@H]2CC[C@@H](C)[C@@](O)(O2)C(=O)C(=O)N2CCCC[C@H]2C(=O)O[C@H]([C@H](C)C[C@@H]2CC[C@@H](O)[C@H](OC)C2)CC(=O)[C@H](C)/C=C(\\C)[C@@H](O)[C@@H](OC)C(=O)[C@H](C)C[C@H](C)/C=C/C=C/C=C/1C", "note": "[rapamycin, Rapamycin]", "values": [{"measurement": "S6 phosphorylation", "setting": "[1]; 1 μM, FIG. 6 inset", "value": "significantly inhibited"}, {"measurement": "S6 phosphorylation", "setting": "[1]; 5 μM, FIG. 2C", "value": "completely inhibited"}, {"measurement": "inhibition of ribosomal S6 protein phosphorylation, dose dependence", "setting": "[1]; FIG. 6 legend", "value": "dose-dependent inhibition"}, {"measurement": "effect on ribosomal S6 protein phosphorylation in control astrocytes", "setting": "[2]; [5]", "value": "little or no effect"}, {"measurement": "S6 phosphorylation", "setting": "[2]; 1 μM, FIG. 6 inset", "value": "no effect"}, {"measurement": "S6 phosphorylation", "setting": "[2]; 5 μM, FIG. 2C", "value": "completely inhibited"}, {"measurement": "cell survival (Trypan blue exclusion)", "setting": "astrocytes", "value": "greater than 98%"}, {"measurement": "binding affinity to FKBP12", "setting": "[3]", "value": "high affinity"}, {"measurement": "binding affinity to FRB domain (E2015 to Q2114) of mTOR", "setting": "[4]", "value": "high affinity"}, {"measurement": "reduction of proliferation", "setting": "Nf1−/− astrocytes; 1 μM", "value": "55±9.5", "unit": "%"}, {"measurement": "inhibition of cell proliferation (growth), dose dependence", "setting": "Nf1−/− astrocytes; FIG. 6 legend", "value": "dose-dependent inhibition"}, {"measurement": "effect on cell proliferation (growth) in control astrocytes", "setting": "wild-type astrocytes; [5]", "value": "little or no effect"}, {"measurement": "reduction of basal proliferation", "setting": "wild-type astrocytes; wild-type astrocytes, 1 μM", "value": "16±4", "unit": "%"}]}
